Patent US20260356851A1, “TRICYCLIC COMPOUNDS AND USES THEREOF” (HUTCHMED LIMITED, priority 2023, published 2026)

What was measured:
Type in all cases: cell-based
[1] = molecular target: T1, pERK1/2 (Thr202/Tyr204), NCI-1H358 (KRAS G12C) (Homo sapiens, UniProt P01116, G12C); experiment: Assay of intracellular pERK1/2 (Thr202/Tyr204) phosphorylation in NCI-H358 cells (KRAS G12C); conditions: pERK1/2, 2 days, read-out: NCI-H358 (KRAS G12C) IC50
T1 construct: pERK1/2 HTRF read-out
Procedure, shortened: (§1)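 HTRF detection of Thr202/Tyr204-phosphorylated ERK1/2 (665/615 nm ratio) in lysates from cells treated 2 days with serially 3-fold diluted compound.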

[2] = molecular target: T2, pERK1/2 (Thr202/Tyr204), PANC-1 (KRAS G121D) (Homo sapiens, UniProt P01116, G12D); experiment: Assay of intracellular pERK1/2 (Thr202/Tyr204) phosphorylation in PANC-1 cells (KRAS G12D); conditions: pERK1/2, 2 days, read-out: PANC-1 (KRAS G12D) IC50
T2 construct: pERK1/2 HTRF read-out
T2 sequence (P01116 1-188 isoform P01116-2 G12D): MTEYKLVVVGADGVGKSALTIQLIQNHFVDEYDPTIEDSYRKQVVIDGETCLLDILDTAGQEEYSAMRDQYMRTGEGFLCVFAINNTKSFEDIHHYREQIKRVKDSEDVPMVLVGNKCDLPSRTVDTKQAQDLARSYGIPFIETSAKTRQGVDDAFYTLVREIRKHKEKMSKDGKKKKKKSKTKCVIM
Procedure, shortened: as §1

[3] = molecular target: T3, pERK1/2 (Thr202/Tyr204), NCI-1H441 (KRAS G12V) (Homo sapiens, UniProt P01116, G12V); experiment: Assay of intracellular pERK1/2 (Thr202/Tyr204) phosphorylation in NCI-H441 cells (KRAS G12V); conditions: pERK1/2, 2 days, read-out: NCI-H441 (KRAS G12V) IC50
T3 construct: pERK1/2 HTRF read-out
T3 sequence (P01116 1-188 isoform P01116-2 G12V): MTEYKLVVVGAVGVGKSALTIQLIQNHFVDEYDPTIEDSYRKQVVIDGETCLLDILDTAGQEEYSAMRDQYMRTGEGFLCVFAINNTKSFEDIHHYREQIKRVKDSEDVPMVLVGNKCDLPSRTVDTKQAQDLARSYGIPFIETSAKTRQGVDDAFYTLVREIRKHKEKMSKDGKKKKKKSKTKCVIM
Procedure, shortened: as §1

T1 sequence (P01116 1-188 isoform P01116-2 G12C): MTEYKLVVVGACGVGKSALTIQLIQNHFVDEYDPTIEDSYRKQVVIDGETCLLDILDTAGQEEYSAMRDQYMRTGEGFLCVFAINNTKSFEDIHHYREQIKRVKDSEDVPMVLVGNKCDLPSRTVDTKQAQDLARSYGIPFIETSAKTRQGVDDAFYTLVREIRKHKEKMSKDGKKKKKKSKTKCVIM

| SMILES | IC50 [1] [nM] | IC50 [2] [nM] | IC50 [3] [nM] |
| --- | --- | --- | --- |
| Cc1cc2[nH]ncc2c(-c2nc3c4c(nc(OC[C@@]56CCCN5C[C@H](F)C6)nc4c2F)N([C@H](C)c2cc(F)cnc2N)[C@@H](C)CO3)c1C(F)(F)F [Compound 342] | 0.2 | 0.3 | 0.4 |
| CC(c1cccnc1N)N1CCOc2nc(-c3cc(N)ccc3C(F)(F)F)c(F)c3nc(OC[C@@H]4CCCN4C)nc1c23 (stereo partly drawn) [Compound 36] | 6 | 286 | 25 |
| [2H]C1([2H])CC[C@@]2(COc3nc4c5c(nc(-c6cc(N)cc(C)c6C(F)(F)F)c(F)c5n3)OCCN4C(C)c3cccnc3N)C[C@@H](F)CN12 (stereo partly drawn) [Compound 231] | 0.2 | 0.8 | 0.2 |
| CCC(c1cccnc1N)N1CCOc2nc(-c3cc(N)c(F)c(Cl)c3C(F)(F)F)c(F)c3nc(OC[C@@]45CCCN4C[C@H](F)C5)nc1c23 (single isomer, unassigned) [Compound 215, 3-((R or S)-1-(5-(5-amino-3-chloro-4-fluoro-2-(trifluoromethyl)phenyl)-4-fluoro-2-(((2R,7aS)-2-fluorotetrahydro-1H-pyrrolizin-7a(5H)-yl)methoxy)-8,9-dihydro-10H-7-oxa-1,3,6,10-tetraazacyclohepta[de]naphthalen-10-yl)propyl)pyridin-2-amine] | 21 | > 100 | 36 |
| CC(c1cccnc1N)N1CCOc2nc(-c3cc(N)cc(Cl)c3C(F)(F)F)c(F)c3nc(OC[C@@]45CCCN4C[C@H](F)C5)nc1c23 (single isomer, unassigned) [Compound 71, 3-((R or S)-1-(5-(5-amino-3-chloro-2-(trifluoromethyl)phenyl)-4-fluoro-2-(((2R,7aS)-2-fluorotetrahydro-1H-pyrrolizin-7a(5H)-yl)methoxy)-8,9-dihydro-10H-7-oxa-1,3,6,10-tetraazacyclohepta[de]naphthalen-10-yl)ethyl)pyridin-2-amine] | 0.1 | 0.6 | 0.4 |
| Cc1c(C(F)(F)F)c(-c2cc3nc(OC[C@@]45CCCN4C[C@H](F)C5)nc4c3c(n2)OC[C@H](C)N4C(C)c2cccnc2N)c2c(C)n[nH]c2c1F (stereo partly drawn) [Compound 383] | 0.5 | 0.4 | 0.4 |
| [2H]C1([2H])CC[C@@]2(C([2H])([2H])Oc3nc4c5c(nc(-c6cc(N)cc(C)c6C(F)(F)F)c(F)c5n3)OCCN4C(C)c3cccnc3N)C[C@@H](F)CN12 (stereo partly drawn) [Compound 105] | 0.4 | 2 | 0.6 |
| CC(c1cccnc1N)N1c2nc(OC[C@@]34CCCN3C[C@H](F)C4)nc3c(F)c(-c4cccc5nc(N)nn45)nc(c23)OC[C@@H]1C (stereo partly drawn) [Compound 335] | > 100 | > 100 | > 100 |
| Cc1cc(N)cc(-c2nc3c4c(nc(OC[C@@]56CCCN5C[C@H](F)C6)nc4c2F)N(C(C)c2cccnc2N)CCO3)c1C(F)(F)F (single isomer, unassigned) [Compound 62, 3-((R or S)-1-(5-(5-amino-3-methyl-2-(trifluoromethyl)phenyl)-4-fluoro-2-(((2R,7aS)-2-fluorotetrahydro-1H-pyrrolizin-7a(5H)-yl)methoxy)-8,9-dihydro-10H-7-oxa-1,3,6,10-tetraazacyclohepta[de]naphthalen-10-yl)ethyl)pyridin-2-amine] | 8 | 55 | 9 |
| C[C@@H](c1cccnc1N)N1c2nc(OC[C@@]34CCCN3C[C@H](F)C4)nc3c(F)c(-c4c5ccccc5cc5[nH]ncc45)nc(c23)O[C@@H]2CCC[C@@H]21 [Compound 400] | 676 | 831 | > 1000 |

Second part, the compound after the results:

| IC50 [1] [nM] | IC50 [2] [nM] | IC50 [3] [nM] | SMILES |
| --- | --- | --- | --- |
| 0.2 | 0.8 | 0.3 | [2H]C1([2H])Oc2nc(-c3cc(N)c(F)c(Cl)c3C(F)(F)F)c(F)c3nc(OC[C@@]45CCCN4C[C@H](F)C5)nc(c23)N(C(C)c2cccnc2N)C1([2H])[2H] (single isomer, unassigned) [Compound 206, 3-((R or S)-1-(5-(5-amino-3-chloro-4-fluoro-2-(trifluoromethyl)phenyl)-4-fluoro-2-(((2R,7aS)-2-fluorotetrahydro-1H-pyrrolizin-7a(5H)-yl)methoxy)-8,9-dihydro-10H-7-oxa-1,3,6,10-tetraazacyclohepta[de]naphthalen-10-yl-8,8,9,9-d4)ethyl)pyridin-2-amine] |
| 1 | 32 | 3 | CC(c1cccnc1N)N1CCOc2nc(-c3cc(N)c(F)c(Cl)c3Cl)c(F)c3nc(OC[C@@]45CCCN4C[C@H](F)C5)nc1c23 (stereo partly drawn) [Compound 233] |
| 0.3 | 0.3 | 0.4 | Cc1n[nH]c2cc3ccccc3c(-c3nc4c5c(nc(OC[C@@]67CCCN6C[C@H](F)C7)nc5c3F)N(C(C)c3cccnc3N)[C@@H](C)CO4)c12 (stereo partly drawn) [Compound 401] |
| > 100 | > 100 | > 100 | Cc1cc2[nH]ncc2c(-c2nc3c4c(nc(OC[C@@]56CCCN5C[C@H](F)C6)nc4c2F)N(C(C)c2cccnc2N)[C@@H]2COCC[C@H]2O3)c1C(F)(F)F (stereo partly drawn) [Compound 392] |
| 1 | 4 | 1 | CC(c1cccnc1N)N1CCOc2nc(-c3cc(O)cc4ccc(F)c(F)c34)c(F)c3nc(OC[C@@]45CCCN4C/C(=C\F)C5)nc1c23 (stereo partly drawn) [Compound 11] |
| 152 | > 1000 | 797 | CCOc1nc2c3c(nc(-c4cc(O)cc5ccc(F)c(F)c45)c(F)c3n1)OCCN2C(C)c1cccnc1N (stereo not drawn) [Compound 10] |
| 0.7 | 11 | 2 | Cc1c(F)c(N)cc(-c2nc3c4c(nc(OC[C@@]56CCCN5C[C@H](F)C6)nc4c2F)N(C(C)c2cc(F)cnc2N)CCO3)c1C(F)(F)F (stereo partly drawn) [Compound 177] |
| 0.3 | 2 | 0.5 | [2H]C1([2H])CN(C(C)c2cccnc2N)c2nc(OC[C@@]34CCCN3C[C@H](F)C4)nc3c(F)c(-c4cc(N)c(F)c(C)c4C(F)(F)F)nc(c23)O1 (stereo partly drawn) [Compound 157] |
| > 100 | > 100 | > 100 | Cc1cc(N)cc(-c2nc3c4c(nc(OCC5CCOCC5)nc4c2F)N([C@@H](C)c2cccnc2N)CCO3)c1C(F)(F)F (single isomer, unassigned) [Compound 118, (R or S)-3-(1-(5-(5-amino-3-methyl-2-(trifluoromethyl)phenyl)-4-fluoro-2-((tetrahydro-2H-pyran-4-yl)methoxy)-8,9-dihydro-10H-7-oxa-1,3,6,10-tetraazacyclohepta[de]napthalen-10-yl)ethyl)pyridin-2-amine] |
| 0.7 | 17 | 2 | [2H][C@@]1(F)CN2CCC[C@@]2(COc2nc3c4c(nc(-c5cc(N)c(F)c(C)c5C(F)(F)F)c(F)c4n2)OCCN3C(C)c2cccnc2N)C1 (single isomer, unassigned) [Compound 169, (*)3-(1-(5-(5-amino-4-fluoro-3-methyl-2-(trifluoromethyl)phenyl)-4-fluoro-2-(((2S or 2R,7aS)-2-fluorotetrahydro-1H-pyrrolizin-7a(5H)-yl-2-d)methoxy)-8,9-dihydro-1OH-7-oxa-1,3,6,10-tetraazacyclohepta[de]naphthalen-10-yl)ethyl)pyridin-2-amine] |
| 0.1 | 2 | 0.4 | [2H]C1([2H])CC[C@@]2(COc3nc4c5c(nc(-c6cc(N)c(F)c(Cl)c6C(F)(F)F)c(F)c5n3)OCCN4C(C)c3cccnc3N)C[C@@H](F)CN12 (stereo partly drawn) [Compound 221] |
